Measurements published in PMC10916402, “Meropenem-ANT3310, a unique β-lactam-β-lactamase inhibitor combination with expanded antibacterial spectrum against Gram-negative pathogens including carbapenem-resistant Acinetobacter baumannii” (Antimicrobial Agents and Chemotherapy, 2024).

Key:
Test in all cases: In vitro SBL inhibition assay (nitrocefin hydrolysis), IC50
KPC-2 = KPC-2 (Klebsiella pneumoniae, UniProt Q9F663); assay type: biochemical
Experimental: (§1) Nitrocefin (Sigma-Aldrich, St Louis, MO, USA), a chromogenic cephalosporin antibiotic (λ, 482 nm; εM, 15,000 M^−1.cm^−1), was used as a reporter substrate at 100 µM for KPC-2, OXA-23, and OXA-48, at 200 µM for OXA-24 and OXA-51, and at 50 µM for OXA-58. Enzymes were preincubated in the presence of varying concentrations of each compound (0.006 to 3000 nM, diluted twofold in dimethyl sulfoxide (DMSO) for KPC-2, OXA-23, and OXA-48 assays and 0.51 to 10,000 nM diluted threefold in DMSO for OXA-24, OXA-51, and OXA-58) for 10 min at 30°C. Nitrocefin was then added and its hydrolysis by the uninhibited enzyme fraction was followed at an absorbance wavelength of 482 nm for 10 min at 30°C using Envision UV fluorescence plate reader (Perkin Elmer, Waltham, MA, USA). Hydrolysis rate data were used to determine inhibitory activities, expressed in IC50 values [corresponding to the compound concentration (µM) required to inhibit 50% of enzymatic reaction].

OXA-48 = OXA-48 (Klebsiella pneumoniae, UniProt Q6XEC0); assay type: biochemical; conditions: 10 min preincubation, 30°C, read-out: Enzyme IC50
Sequence of OXA-48 (Q6XEC0 23-265, looked up, species assumed): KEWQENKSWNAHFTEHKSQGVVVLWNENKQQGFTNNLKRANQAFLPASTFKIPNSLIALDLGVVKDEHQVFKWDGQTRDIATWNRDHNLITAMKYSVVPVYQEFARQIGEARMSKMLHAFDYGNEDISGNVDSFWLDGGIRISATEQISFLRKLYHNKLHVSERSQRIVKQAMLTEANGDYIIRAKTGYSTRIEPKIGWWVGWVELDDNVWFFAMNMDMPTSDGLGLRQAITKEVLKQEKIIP
Experimental: as §1

OXA-23 = OXA-23 (Acinetobacter baumannii, UniProt Q9L4P2); assay type: biochemical; conditions: 10 min preincubation, 30°C, read-out: Enzyme IC50
Sequence of OXA-23 (Q9L4P2 18-273): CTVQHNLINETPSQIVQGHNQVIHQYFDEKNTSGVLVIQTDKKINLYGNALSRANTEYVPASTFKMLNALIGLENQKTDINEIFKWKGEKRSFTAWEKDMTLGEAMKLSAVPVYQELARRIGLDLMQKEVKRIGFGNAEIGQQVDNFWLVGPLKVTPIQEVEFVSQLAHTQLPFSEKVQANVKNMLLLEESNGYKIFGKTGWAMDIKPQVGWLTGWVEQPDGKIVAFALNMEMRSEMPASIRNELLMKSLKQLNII
Experimental: as §1

OXA-24/40 = OXA-24/40 (Acinetobacter baumannii, UniProt Q8RLA6); assay type: biochemical; conditions: 10 min preincubation, 30°C, read-out: Enzyme IC50
Sequence of OXA-24/40 (Q8RLA6 22-275): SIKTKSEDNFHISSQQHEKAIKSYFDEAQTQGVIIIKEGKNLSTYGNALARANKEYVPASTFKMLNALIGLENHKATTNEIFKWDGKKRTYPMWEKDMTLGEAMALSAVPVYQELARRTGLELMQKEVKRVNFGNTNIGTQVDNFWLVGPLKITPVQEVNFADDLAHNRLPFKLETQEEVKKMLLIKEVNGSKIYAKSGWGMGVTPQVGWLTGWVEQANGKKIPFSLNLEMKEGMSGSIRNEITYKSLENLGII
Experimental: as §1

OXA-58 = OXA-58 (Acinetobacter baumannii, UniProt Q2TR58); assay type: biochemical, A. baumannii
Sequence of OXA-58 (Q2TR58 19-280): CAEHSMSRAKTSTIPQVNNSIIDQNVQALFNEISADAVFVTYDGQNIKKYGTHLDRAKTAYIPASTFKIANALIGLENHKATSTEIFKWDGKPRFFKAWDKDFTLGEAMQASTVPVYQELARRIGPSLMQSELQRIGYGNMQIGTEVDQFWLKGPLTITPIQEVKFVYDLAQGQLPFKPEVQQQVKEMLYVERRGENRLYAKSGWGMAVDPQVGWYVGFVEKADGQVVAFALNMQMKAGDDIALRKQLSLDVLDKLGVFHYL
Experimental: as §1

OXA-51 = OXA-51 (Acinetobacter baumannii, UniProt Q5QT35); assay type: biochemical, A. baumannii; conditions: 10 min preincubation, 30°C, read-out: Enzyme IC50
Sequence of OXA-51 (Q5QT35 entry or part of it): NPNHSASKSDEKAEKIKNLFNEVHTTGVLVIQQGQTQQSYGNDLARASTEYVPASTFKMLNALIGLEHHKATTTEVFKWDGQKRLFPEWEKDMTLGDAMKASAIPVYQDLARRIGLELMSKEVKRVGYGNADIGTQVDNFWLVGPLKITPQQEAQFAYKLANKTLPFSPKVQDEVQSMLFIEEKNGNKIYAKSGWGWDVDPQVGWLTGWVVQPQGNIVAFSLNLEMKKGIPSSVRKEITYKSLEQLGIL
Experimental: as §1

Sequence of KPC-2 (Q9F663 25-293 limits assumed): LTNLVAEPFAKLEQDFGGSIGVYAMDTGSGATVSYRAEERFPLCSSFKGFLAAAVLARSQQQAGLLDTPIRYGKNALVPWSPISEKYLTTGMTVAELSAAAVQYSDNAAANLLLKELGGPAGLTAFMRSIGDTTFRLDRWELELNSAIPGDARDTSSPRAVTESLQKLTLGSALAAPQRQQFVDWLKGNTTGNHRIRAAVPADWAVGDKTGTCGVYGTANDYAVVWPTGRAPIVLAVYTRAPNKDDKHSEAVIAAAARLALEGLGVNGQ

**Q.** For `CC1=C[C@@H]2CN(C(=O)N2OS(=O)(=O)O)[C@@H]1C(N)=O` [Dur, durlobactam], which IC50 (KPC-2) is on record?
**A.** 5.3 nM

**Q.** What about the IC50 (OXA-48) of the same compound?
**A.** 3.4 nM

**Q.** And the IC50 (OXA-23)?
**A.** 347 nM

**Q.** What about the IC50 (OXA-24/40) of the same compound?
**A.** 208 nM

**Q.** And the IC50 (OXA-58)?
**A.** 11 nM

**Q.** And the IC50 (OXA-51)?
**A.** 4300 nM

**Q.** Which results are given for `O=C(NC1CCNCC1)[C@@H]1CC[C@@H]2CN1C(=O)N2OS(=O)(=O)O` (relative stereo) [Rel, relebactam]?
**A.** IC50 (OXA-23): > 3000 nM; IC50 (OXA-24/40): > 10000 nM; IC50 (OXA-58): > 10000 nM; IC50 (OXA-51): > 10000 nM
